System: human mixed lymphocyte reaction (MLR)
Test: human mixed lymphocyte reaction (MLR) assay, immunosuppressant activity
Assay type: cell-based
Details: for IC50: Table 1
Protocol: In Vitro Assay of Biological Activity
The immunosuppressant activity of the compounds of the present invention was determined using the human mixed lymphocyte reaction (MLR) assay described by. T. Kinoet al. in Transplantation Proceedings, XIX(5):36-39, Suppl. 6 (1987).

Structure (SMILES) | IC50 | inhibition at 1 µM (Table 1, at 1 × 10^-6 (M), read-out: 25% at 1 × 10^-6 (in the IC50 (M) column))
CC[C@@H]1/C=C(\C)C[C@H](C)C[C@H](OC)[C@H]2O[C@@](O)(C(=O)C(=O)N3CCCC[C@H]3C(=O)O[C@H](/C(C)=C/[C@@H](CCO)CCC(=O)NCc3ccccc3)[C@H](C)[C@@H](O)CC1=O)[C@H](C)C[C@@H]2OC [Example 7] | 23 nM | 
CC[C@@H]1/C=C(\C)C[C@H](C)C[C@H](OC)[C@H]2O[C@@](O)(C(=O)C(=O)N3CCCC[C@H]3C(=O)O[C@H](/C(C)=C/[C@H]3CCOC(=O)CC3)[C@H](C)[C@@H](O)CC1=O)[C@H](C)C[C@@H]2OC [Example 11] | 1.1 nM | 
CC[C@@H]1/C=C(\C)C[C@H](C)C[C@H](OC)[C@H]2O[C@@](O)(C(=O)C(=O)N3CCCC[C@H]3C(=O)O[C@H](/C(C)=C/[C@@H](CCO)CCC(=O)N3CCOCC3)[C@H](C)[C@@H](O)CC1=O)[C@H](C)C[C@@H]2OC [Example 15] |  | 25%
CC[C@@H]1/C=C(\C)C[C@H](C)C[C@H](OC)[C@H]2O[C@@](O)(C(=O)C(=O)N3CCCC[C@H]3C(=O)O[C@H](/C(C)=C/[C@@H]3CCNC(=O)OCC3)[C@H](C)[C@@H](O)CC1=O)[C@H](C)C[C@@H]2OC [Example 37] | 0.57 nM | 
CC[C@@H]1/C=C(\C)C[C@H](C)C[C@H](OC)[C@H]2O[C@@](O)(C(=O)C(=O)N3CCCC[C@H]3C(=O)O[C@H](/C(C)=C/[C@@H]3CCC(=O)N4CCSC4C3)[C@H](C)[C@@H](O)CC1=O)[C@H](C)C[C@@H]2OC (some centres unmarked) [Example 39] | 37 nM | 

Further compounds by falling IC50, results first:

IC50 | Structure (SMILES) | inhibition at 1 µM (Table 1, at 1 × 10^-6 (M), read-out: 25% at 1 × 10^-6 (in the IC50 (M) column))
388 nM | CCCNC(=O)CC[C@@H](/C=C(\C)[C@H]1OC(=O)[C@@H]2CCCCN2C(=O)C(=O)[C@]2(O)O[C@H]([C@@H](OC)C[C@@H](C)C/C(C)=C/[C@@H](CC)C(=O)C[C@H](O)[C@H]1C)[C@@H](OC)C[C@H]2C)CCO [Example 13] | 
65 nM | CC[C@@H]1/C=C(\C)C[C@H](C)C[C@H](OC)[C@H]2O[C@@](O)(C(=O)C(=O)N3CCCC[C@H]3C(=O)O[C@H](/C(C)=C/[C@@H](CCO)CCC(=O)NCCO)[C@H](C)[C@@H](O)CC1=O)[C@H](C)C[C@@H]2OC [Example 9] | 
2.6 nM | CC[C@@H]1/C=C(\C)C[C@H](C)C[C@H](OC)[C@H]2O[C@@](O)(C(=O)C(=O)N3CCCC[C@H]3C(=O)O[C@H](/C(C)=C/C3CCN(C(=O)N4CCOCC4)CC3)[C@H](C)[C@@H](O)CC1=O)[C@H](C)C[C@@H]2OC [Example 56] | 
